The subject of test [1] is osteoclasts derived from RAW264.7 cells. The test can be described thus: Osteoclast functional assay (bone resorption on bovine cortical bone slices). The format is cell-based, murine. The following applies: 15 ng/mL RANKL, 7 days. The protocol:
RAW264.7 cells were plated in differentiation medium at a density of 1250 cells/100 µL on 0.2-mm-thick bovine cortical bone slices (BoneSlices.com, Jelling, Denmark) in 96-well plates. Six hours later, 100 µL differentiation medium with RANKL (15 ng/mL, final concentration) was added, in the presence of a carrier or in combination with the GPR55 modulators. The media with the different compounds were replaced every 48 h, for a total of 7 days. At the end of this period, the cells were detached with a 10% bleach solution, and the resorption excavations were visualised by using Toluidine Blue staining (Sigma-Aldrich). Images of the resorption areas were obtained under the microscope (SW380T; Swift Optical Instruments, Inc., TX, USA) using the 10 × objective, and acquired with a digital camera (Swiftcam SC1003; Swift Optical Instruments, Inc.). The total eroded surface underwent blinded quantification using ImageJ (NIH), and was subdivided into pit and trench surfaces. Pits were characterised as round excavations with well-defined edges where the ratio between length and width was < 2.0. Trenches were defined as elongated excavations with well-defined edges whose length was at least twice the wide, and with clear signs of continued resorption. The prevalence of trenches was calculated as a proportion (%) of the trench surface relative to the total eroded surface.

In test [2] the test system is RAW264.7 cells. Description: Filopodium formation / actin morphology in siRNA-interfered RAW264.7 cells (confocal microscopy). The following applies: 10 µM soybean LPI. It is filed as cell-based, murine. The method, then: For transient interference of Gpr55, RAW264.7 cells were plated at 6 × 10^5 cells/well in six-well plates in growth medium without antibiotics. Twenty-four hours later, the cells were transfected with 250 pmol/well non-targeting small-interfering (si)RNAs (si-NT; siGENOME siRNA Pool #2; D-001206-14; Dharmacon, Chicago, IL, USA) or Gpr55-specific siRNAs (si-GPR55; siGENOME mouse GPR55 SMART pool; M-043590-01; Dharmacon) using Lipofectamine LTX and Plus Reagent, according to the manufacturer instructions. Twenty-four hours later, the cells were plated for the different assays or for RNA extraction. The efficiency of interference was monitored by real-time PCR after 72 h of interference, using the primers listed in the Additional file 1: Table S1. β2-microglobulin was followed as a housekeeping gene.
Twenty-four hours after plating the RAW264.7 cells at a density of 1.2 × 10^6 cells/well in six-well plates, or 2.5 × 10^5 cells/well in 24-well plates on coverslips, the cells were serum deprived for 2 h and then stimulated while adhered, with LPI in the assay buffer (0.1% faf-BSA, 20 mM HEPES in HBSS^++). […] Finally, the fixed cells were stained with 33 nM Alexa546-labelled phalloidin for 1 h at room temperature, washed three times (10 min each) with cytoskeleton buffer, suspended in PBS with 3% BSA, and analysed by FACS (FACSCalibur or FACSAria III; Becton Dickinson, Franklin Lakes, NJ). […]

From paper PMC8073907, “Peptide targeting of lysophosphatidylinositol-sensing GPR55 for osteoclastogenesis tuning” (Cell Communication and Signaling : CCS, 2021) come the findings set out here.

Turning to lysophosphatidylinositol [LPI], the “effect on relative trench contribution” value in test [1] (0.5 µM ML-191 or 1 µM 18:0 LPI) is recorded as “did not affect the relative contributions of the trenches”. Further, the “increase of total resorbing activity induced by RANKL” value in test [1] (1 µM 18:0 LPI, versus RANKL + 0.004% faf-BSA) was determined as 54%. Further, in test [2] (si-GPR55 cells), the “actin cytoskeleton reorganisation, si-GPR55” value is “no significant signs of actin cytoskeleton reorganisation”. Moreover, the “numbers of filopodia, si-NT” value in test [2] (si-NT cells) is “time-dependent increase in the numbers of filopodia”.
